#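 Test compounds were applied to cells in 96-well plates for 48 hours at 5 doses. GI50: concentration for 50% inhibition of growth.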 Active and inactive are the calls of the source. Cut-off read from the data, not from the text of the source: active = GI50 up to about 1.1 µM and inactive = higher.
# Columns and labels:
# Test in all cases: NCI-60 cell line screen, 48 h
# LOX IMVI = tested on: LOX IMVI
# NCI-H23 = tested on: NCI-H23
# Malme-3M = tested on: Malme-3M
# SF-539 = tested on: SF-539
# SNB-78 = tested on: SNB-78
# RPMI-8226 = tested on: RPMI-8226
# SF-295 = tested on: SF-295
# HCC 2998 = tested on: HCC 2998
# TK-10 = tested on: TK-10
# UO-31 = tested on: UO-31
# SNB-75 = tested on: SNB-75
# RXF 631 = tested on: RXF 631
# SF-268 = tested on: SF-268
# A549 = tested on: A549
# SR = tested on: SR
# LXFL 529 = tested on: LXFL 529
# HOP-18 = tested on: HOP-18
# SK-OV-3 = tested on: SK-OV-3
# HT-29 = tested on: HT-29
# SN12C = tested on: SN12C
# IGROV-1 = tested on: IGROV-1
# A498 = tested on: A498
# 786-0 = tested on: 786-0
# NCI-H460 = tested on: NCI-H460
# COLO 205 = tested on: COLO 205
# K562 = tested on: K562
# SK-MEL-5 = tested on: SK-MEL-5
# HCT-15 = tested on: HCT-15
# OVCAR-8 = tested on: OVCAR-8
# DMS-114 = tested on: DMS-114
# SNB-19 = tested on: SNB-19
# KM12 = tested on: KM12
# EKVX = tested on: EKVX
# M14 = tested on: M14
# OVCAR-5 = tested on: OVCAR-5
# U-251 = tested on: U-251
# OVCAR-3 = tested on: OVCAR-3
# SK-MEL-28 = tested on: SK-MEL-28
# SW-620 = tested on: SW-620
# DLD-1 = tested on: DLD-1
# HL-60 = tested on: HL-60
# ACHN = tested on: ACHN
# UACC-62 = tested on: UACC-62
# DMS-273 = tested on: DMS-273
# MOLT-4 = tested on: MOLT-4
# NCI-H226 = tested on: NCI-H226
# OVCAR-4 = tested on: OVCAR-4
# RXF 393 = tested on: RXF 393
# CCRF-CEM = tested on: CCRF-CEM
# M19-MEL = tested on: M19-MEL
smiles,measurement,setting,value
CC1=C(C)C(=O)c2c(cc3ccc4ccccc4n23)C1=O,GI50,LOX IMVI,> 100 µM (inactive)
same,GI50,NCI-H23,> 100 µM (inactive)
same,GI50,Malme-3M,> 100 µM (inactive)
same,GI50,SF-539,> 100 µM (inactive)
same,GI50,SNB-78,> 100 µM (inactive)
same,GI50,RPMI-8226,> 100 µM (inactive)
same,GI50,SF-295,> 100 µM (inactive)
same,GI50,HCC 2998,> 100 µM (inactive)
same,GI50,TK-10,> 100 µM (inactive)
same,GI50,UO-31,> 100 µM (inactive)
same,GI50,SNB-75,> 100 µM (inactive)
same,GI50,RXF 631,> 100 µM (inactive)
same,GI50,SF-268,> 100 µM (inactive)
same,GI50,A549,> 100 µM (inactive)
same,GI50,SR,> 100 µM (inactive)
same,GI50,LXFL 529,> 100 µM (inactive)
same,GI50,HOP-18,> 100 µM (inactive)
same,GI50,SK-OV-3,> 100 µM (inactive)
same,GI50,HT-29,> 100 µM (inactive)
same,GI50,SN12C,> 100 µM (inactive)
same,GI50,IGROV-1,> 100 µM (inactive)
same,GI50,A498,> 100 µM (inactive)
same,GI50,786-0,> 100 µM (inactive)
same,GI50,NCI-H460,> 100 µM (inactive)
same,GI50,COLO 205,> 100 µM (inactive)
same,GI50,K562,> 100 µM (inactive)
same,GI50,SK-MEL-5,> 100 µM (inactive)
same,GI50,HCT-15,> 100 µM
same,GI50,OVCAR-8,> 100 µM (inactive)
same,GI50,DMS-114,> 100 µM (inactive)
same,GI50,SNB-19,> 100 µM (inactive)
same,GI50,KM12,> 100 µM (inactive)
same,GI50,EKVX,> 100 µM (inactive)
same,GI50,M14,> 100 µM (inactive)
same,GI50,OVCAR-5,> 100 µM (inactive)
same,GI50,U-251,> 100 µM (inactive)
same,GI50,OVCAR-3,> 100 µM (inactive)
same,GI50,SK-MEL-28,> 100 µM (inactive)
same,GI50,SW-620,> 100 µM (inactive)
same,GI50,DLD-1,> 100 µM (inactive)
same,GI50,HL-60,> 100 µM (inactive)
same,GI50,ACHN,> 100 µM (inactive)
same,GI50,UACC-62,> 100 µM (inactive)
same,GI50,DMS-273,> 100 µM (inactive)
same,GI50,MOLT-4,> 100 µM (inactive)
same,GI50,NCI-H226,> 100 µM (inactive)
same,GI50,OVCAR-4,> 100 µM (inactive)
same,GI50,RXF 393,> 100 µM (inactive)
same,GI50,CCRF-CEM,> 100 µM (inactive)
same,GI50,M19-MEL,> 100 µM (inactive)

# Reference: ChEMBL document CHEMBL1201862, “PubChem BioAssay data set” (2004)
